The text below walks through data of the supplement of paper PMC6965134.

The series is described as follows: TIMS collisional cross section (CCS, N2) of the lipid ion; higher = larger ion cross section. The conditions noted are these: ionization mode: positive, one isomer drawn.

± gives the standard deviation of the averaged measurements.

`CCCCC/C=C\C/C=C\C/C=C\CCCCCCC(=O)O[C@H](CO/C=C\CCCCCCCCCCCCCCCCCC)COP(=O)(O)OCCN` [PE P- 20:0@_20:3] (ion (formula + adduct): [C45H84NO7P+H] 1+): for the setting “sample type: HeLa”, the “TIMS collisional cross section” value is 290.7 Å². Consider `CC/C=C\C/C=C\C/C=C\C/C=C\CCCCC(=O)OC[C@@H](COC(=O)CCCCCCC/C=C\C/C=C\CCCCC)OC(=O)CCCC/C=C\C/C=C\C/C=C\CCCCC` [TG 18:2_18:3_18:4] (ion (formula + adduct): [C57H92O6+NH4] 1+), for which the “TIMS collisional cross section” value (sample type: Liver) is listed as 314.3 Å². Still for that read-out and setting: for `CC/C=C\C/C=C\C/C=C\C/C=C\C/C=C\CCCCCC(=O)OC[C@@H](COC(=O)CCCCCCC/C=C\C/C=C\CCCCC)OC(=O)CCCCCCC/C=C\C/C=C\CCCCC` [TG 18:2_18:2_22:5] (ion (formula + adduct): [C61H100O6+NH4] 1+) the value was 327.9 Å².

In the case of `CC/C=C\C/C=C\C/C=C\CCCCCCCC(=O)O[C@H](COC(=O)CCCCCCCCCCCCCCC)COP(=O)(O)OCCN` [PE 16:0_18:3@] (ion (formula + adduct): [C39H72NO8P+H] 1+), the “TIMS collisional cross section” value (sample type: Liver) was 269.9 Å². Consider `CCCCCCCCCCCCCCCCC(=O)OC[C@@H](COC(=O)CCCCCCCCCCCCCC)OC(=O)CCCCCCCCCCCCCCC` [TG 15:0_16:0_17:0] (ion (formula + adduct): [C51H98O6+NH4] 1+), for which the “TIMS collisional cross section” value stood at 314.3 Å² (sample type: HeLa) and 314.6 ± 0.22 Å² (sample type: plasma). Turning to `CCCCC/C=C\C/C=C\CCCCCCCC(=O)OC[C@@H](COC(=O)CCCCCCC/C=C\CCCCCCC)OC(=O)CCCCCCC/C=C\C/C=C\CCCCC` [TG 17:1_18:2_18:2] (ion (formula + adduct): [C56H98O6+NH4] 1+), the “TIMS collisional cross section” value amounted to 317.5 Å² (sample type: Liver) and 318.3 Å² (sample type: plasma).

For `CCCCC/C=C\C/C=C\C/C=C\CCCCCCC(=O)O[C@H](CO/C=C\CCCCCCCCCCCCCCCC)COP(=O)(O)OCCN` [PE P- 18:0@_20:3] (ion (formula + adduct): [C43H80NO7P+H] 1+), the “TIMS collisional cross section” value by setting is: (sample type: HeLa) 283.7 ± 0.71 Å²; (sample type: plasma) 282.7 Å².

Regarding `CC/C=C\C/C=C\C/C=C\C/C=C\C/C=C\CCCC(=O)O[C@H](COC(=O)CCCCCCC/C=C\CCCCCC)COP(=O)(O)OCCN` [PE 16:1_20:5@] (ion (formula + adduct): [C41H70NO8P+H] 1+), the “TIMS collisional cross section” value by setting is: (sample type: HeLa) 269.8 Å²; (sample type: Liver) 269.8 Å². `CC/C=C\C/C=C\C/C=C\C/C=C\C/C=C\C/C=C\CCC(=O)O[C@H](COC(=O)CCCCCCCCCCCCCCC)COP(=O)(O)OCCN` [PE 16:0_22:6] (ion (formula + adduct): [C43H74NO8P+H] 1+): the “TIMS collisional cross section” value (sample type: HeLa) was found to be 278.6 Å². Turning to `CCCCCC/C=C\CCCCCCCC(=O)O[C@H](COC(=O)CCCCCCCCCCCCCCC)COP(=O)([O-])OCC[N+](C)(C)C` [PC 16:0_16:1@] (ion (formula + adduct): [C40H78NO8P+H] 1+), for the setting “sample type: HeLa”, the “TIMS collisional cross section” value is reported as 282 Å². Take `CCCCCCCCCC/C=C\CCCCCCCCCC(=O)OC[C@@H](O)COP(=O)([O-])OCC[N+](C)(C)C` [LPC 22:1] (ion (formula + adduct): [C30H60NO7P+H] 1+): the “TIMS collisional cross section” value runs as follows: (sample type: HeLa) 247.3 Å²; (sample type: plasma) 247.6 Å².

Take `CCCCCC/C=C\CCCCCCCC(=O)OC[C@H](COC(=O)CCCCCCC/C=C\CCCCCCCC)OC(=O)CCCCCCC/C=C\CCCCCC` [TG 16:1_16:1_18:1] (ion (formula + adduct): [C53H96O6+NH4] 1+): the “TIMS collisional cross section” value (sample type: HeLa) is given as 313.4 Å². The same measure, in the same setting: for `CCCCCCCCCCCCCCCCOC[C@H](COP(=O)([O-])OCC[N+](C)(C)C)OC(=O)CCCCCCCCCCCCC` [PC O- 16:0@_14:0] (ion (formula + adduct): [C38H78NO7P+H] 1+) the value was 280.8 Å².
